Test results as given in patent US7345009B2, “Substituted 4-hetaryl-pyrazolines as pest control agents” (Bayer CropScience AG, priority 2002, dated 2008).

How the values were obtained:
[1] = logP determination by reversed-phase HPLC (EEC directive 79/831 Annex V.A8), pH 2.3; assay type: physicochemical; conditions: reversed-phase HPLC column (C18), HPLC C18, 43° C., Preparation Examples
Protocol: The logP values given in the tables and Preparation Examples above are determined in accordance with EEC directive 79/831 Annex V.A8 by HPLC (High Performance Liquid Chromatography) using a reversed-phase column (C 18). Temperature: 43° C.
The determination is carried out in the acidic range at pH 2.3 using the mobile phases 0.1% aqueous phosphoric acid and acetonitrile; linear gradient from 10% acetonitrile to 90% acetonitrile.
Calibration is carried out using unbranched alkan-2-ones (of 3 to 16 carbon atoms) with known logP values (determination of the logP values by retention times using linear interpolation between two successive alkanones).

[2] = system: caterpillars of the army worm (Spodoptera exigua); experiment: Spodoptera exigua test (Example E); assay type: in vivo; conditions: 500 ppm active compound; after 7 days; cabbage leaves dipped
Protocol: (§1) Solvent: 7 parts by weight of dimethylformamide
(§2) Emulsifier: 2 parts by weight of alkylaryl polyglycol ether
(§3) To produce a suitable preparation of active compound, 1 part by weight of active compound is mixed with the stated amounts of solvent and emulsifier, and the concentrate is diluted with emulsifier-containing water to the desired concentration.
Cabbage leaves (Brassica oleracea) are treated by being dipped into the preparation of active compound of the desired concentration and are populated with caterpillars of the army worm (Spodoptera exigua) while the leaves are still moist.
(§4) After the desired period of time, the kill in % is determined. 100% means that all caterpillars have been killed; 0% means that none of the caterpillars have been killed.

[3] = system: caterpillars of the army worm (Spodoptera frugiperda); experiment: Spodoptera frugiperda test (Example F); assay type: in vivo; conditions: 500 ppm active compound; after 7 days; cabbage leaves dipped
Protocol: Spodoptera frugiperda Test
as §1, §2, §3
Cabbage leaves (Brassica oleracea) are treated by being dipped into the preparation of active compound of the desired concentration and are populated with caterpillars of the army worm (Spodoptera frugiperda) while the leaves are still moist.
as §4

[4] = system: larvae of the mustard beetle (Phaedon cochleariae); experiment: Phaedon larvae test (Example C); assay type: in vivo; conditions: 500 ppm active compound; after 7 days; cabbage leaves dipped
Protocol: Phaedon larvae Test Solvent: 7 parts by weight of dimethylformamide Emulsifier: 2 parts by weight of alkylaryl polyglycol ether To produce a suitable preparation of active compound, 1 part by weight of active compound is mixed with the stated amounts of solvent and emulsifier, and the concentrate is diluted with emulsifier-containing water to the desired concentration. Cabbage leaves (Brassica oleracea) are treated by being dipped into the preparation of active compound of the desired concentration and are populated with larvae of the mustard beetle (Phaedon cochleariae) while the leaves are still moist.

[5] = system: Heliothis virescens caterpillars; experiment: Heliothis virescens test (Example B); assay type: in vivo; conditions: 500 ppm active compound; after 7 days; soya bean shoots dipped
Protocol: as §1, §2, §3
Soya bean shoots (Glycine max) are treated by being dipped into the preparation of active compound of the desired concentration and are populated with Heliothis virescens caterpillars while the leaves are still moist.
as §4

[6] = system: caterpillars of the diamondback moth (Plutella xylostella); experiment: Plutella test, cabbage leaf dip (Example D); assay type: in vivo; conditions: 500 ppm active compound; after 7 days; cabbage leaves dipped
Protocol: as §1, §2, §3
Cabbage leaves (Brassica oleracea) are treated by being dipped into the preparation of active compound of the desired concentration and are populated with caterpillars of the diamondback moth (Plutella xylostella) while the leaves are still moist.
as §4

[7] = system: caterpillars of the cotton bud worm (Heliothis armigera); experiment: Heliothis armigera test (Example A); assay type: in vivo; conditions: 500 ppm active compound; after 7 days; soya bean shoots dipped
Protocol: as §1, §2, §3
Soya bean shoots (Glycine max) are treated by being dipped into the preparation of active compound of the desired concentration and are populated with caterpillars of the cotton bud worm (Heliothis armigera) while the leaves are still moist.
as §4

`Cc1nnc(C2CNN=C2c2ccc(Cl)cc2)s1` (centres unmarked) [3-(4-chlorophenyl)-4-(2-methyl-1,3,4-thiadiazol-5-yl)-4,5-dihydro-1H-pyrazole] showed a chromatographic logP [1] of 1.77.

Work on `O=C(Cc1nn[nH]n1)c1ccc(Cl)cc1` [2-tetrazol-5-yl-4′-chloroacetophenone] yielded a chromatographic logP [1] of 1.44.

`Cc1nnn(C2CN(C(=O)Nc3ccc(OC(F)(F)F)cc3)N=C2c2ccc(Cl)cc2)n1` (centres unmarked) [Example 1, N-(4-trifluoromethoxy)-3-(4-chlorophenyl)-4-(5-methyltetrazol-2-yl)-4,5-dihydro-1-pyrazolecarboxanilide] gave a chromatographic logP [1] of 4, a kill [2] of 100% and a kill [3] of 100%. It also gave a kill [4] of 100%, a kill [5] of 100% and a kill [6] of 100%.

For `Cc1nnn(C2CN(C(=O)N(CC#N)c3ccc(OC(F)(F)F)cc3)N=C2c2ccc(Cl)cc2)n1` (centres unmarked) [Example 2, N-cyanomethyl-N-trifluoromethoxy-3-(4-chlorophenyl)-4-(5-methyltetrazol-2-yl)-4,5-dihydro-1-pyrazolecarboxanilide], the kill [7] was 100%, the chromatographic logP [1] was 3.68 and the kill [2] was 100%. For the same compound, the kill [3] was 100%, the kill [4] was 100% and the kill [6] was 100%.

For `Cn1nnc(CC(=O)c2ccc(Cl)cc2)n1` [2-(2-methyltetrazol-5-yl)-4′-chloroacetophenone], the chromatographic logP [1] was 2.03.

Work on `Cc1nnc(C2CN(C(=O)Nc3ccc(OC(F)(F)F)cc3)N=C2c2ccc(Cl)cc2)s1` (centres unmarked) [Example 4, N-(4-trifluoromethoxy)-3-(4-chlorophenyl)-4-(5-methyl-1,3,4-thiadiazol-2-yl)-4,5-dihydro-1-pyrazolecarboxanilide] yielded a kill [7] of 100%, a chromatographic logP [1] of 3.77 and a kill [2] of 100%. The kill [3] was 100%, the kill [4] was 100% and the kill [6] was 100%.

Work on `Cn1nnc(C2CNN=C2c2ccc(Cl)cc2)n1` (centres unmarked) [3-(4-chlorophenyl)-4-(2-methyltetrazol-5-yl)-4,5-dihydro-1H-pyrazole] yielded a chromatographic logP [1] of 1.67.

Work on `Cc1nnn(CC(=O)c2ccc(Cl)cc2)n1` [2-(5-methyltetrazol-2-yl)-4′-chloroacetophenone] yielded a chromatographic logP [1] of 2.14.

`Cn1nnnc1CC(=O)c1ccc(Cl)cc1` [2-(1-methyltetrazol-5-yl)-4′-chloroacetophenone] gave a chromatographic logP [1] of 1.78.

In the case of `Cc1nnn(C2CNN=C2c2ccc(Cl)cc2)n1` (centres unmarked) [3-(4-chlorophenyl)-4-(5-methyltetrazol-2-yl)-4,5-dihydro-1H-pyrazole], the chromatographic logP [1] is reported as 2.11.

Work on `Cc1nnnn1CC(=O)c1ccc(Cl)cc1` [2-(5-methyltetrazol-1-yl)-4′-chloroacetophenone] yielded a chromatographic logP [1] of 1.81.
